Patent US20230372382A1, “USE OF ADENOSINE DIPHOSPHATE RIBOSE FOR ADJUVANT THERAPY WITH RADIATION AND/OR ANTI-CANCER TREATMENT” (PearlsInMires Co., Ltd., priority 2021, published 2023)

Legend:
U-87MG cells = assay: Cancer cell death verification (MTT cell viability); type: cell-based
Procedure: (§2) 3×10^3 Brain cancer (U-87MG), lung cancer (H1975), pancreatic cancer (Aspc-1), liver cancer (Hep G2), breast cancer (MDA-MB-231), colon cancer (HCT116), kidney cancer (Caki-1), gastric cancer (SNU-1) and ovarian cancer (OVCAR-3) cells were cultured in a 96-well plate under conditions of 37° C. and 5% CO2 for 24 hours, and then each cancer cell was treated with ADP-ribose at each concentration. After culturing for 24 hours under conditions of 37° C. and 5% CO2 again, 10 μl of 3-(4,5-dimethylthiazol-2-yl)-2,5-diphenyltetrazolium bromide reagent was added to each well and reacted for 1 hour. After the reaction was completed, the reagent was removed, 200 μl of dimethyl sulfoxide was added to each well, and the absorbance was measured to determine the concentration of half-lethality and maximum lethality compared to untreated cells.
3×10^3 U-87MG cells were cultured in a 96-well plate for 24 hours under conditions of 37° C. and 5% CO2, treated with ADP-ribose at final concentrations of 0.125, 0.25, 0.5, 1, 2, 4, 8, 16, and 32 μM, respectively, and cultured again for 24 hours under conditions of 37° C. and 5% CO2. Then, 10 μl of 3-(4,5-dimethylthiazol-2-yl)-2,5-diphenyltetrazolium bromide reagent was added to each well and reacted for 1 hour. After the reaction was completed, the reagent was removed, 200 μl of dimethyl sulfoxide was added to each well, and the absorbance was measured to confirm cell viability.

Hep G2 cells [1] = assay: as above; type: cell-based
MDA-MB-231 cells = assay: as above; type: cell-based
HCT116 cells = assay: as above; type: cell-based
Procedure: as §2
3×10^3 HCT116 cells were cultured in a 96-well plate for 24 hours under conditions of 37° C. and 5% Ca2, treated with ADP-ribose at concentrations of 0.125, 0.25, 0.5, 1, 2, 4, 8, 16, and 32 μM, respectively, and cultured again for 24 hours under conditions of 37° C. and 5% CO2. Then, 10 μl of 3-(4,5-dimethylthiazol-2-yl)-2,5-diphenyltetrazolium bromide reagent was added to each well and reacted for 1 hour. After the reaction was completed, the reagent was removed, 200 μl of dimethyl sulfoxide was added to each well, and the absorbance was measured to confirm cell viability.

SNU-1 cells = assay: as above; type: cell-based; details: SNU-1, 32 μM ADP-ribose, 24 hours
Procedure: 3×10^3 SNU-1 or OVCAR-3 cells were cultured in a 96-well plate for 24 hours under conditions of 37° C. and 5% CO2, treated with ADP-ribose at concentrations of 32 μM, respectively, and cultured again for 24 hours under conditions of 37° C. and 5% CO2. Then, 10 μl of 3-(4,5-dimethylthiazol-2-yl)-2,5-diphenyltetrazolium bromide reagent was added to each well and reacted for 1 hour. After the reaction was completed, the reagent was removed, 200 μl of dimethyl sulfoxide was added to each well, and the absorbance was measured to confirm cell viability.

[2] = system: Pancreatic cancer (AsPC-1) cells; assay: Xenograft model, subcutaneous ADP-ribose, tumor volume; type: in vivo, BALB/c nude mice; details: AsPC-1 xenograft, 3 times a week, control about 2155.8
Procedure: Pancreatic cancer (AsPC-1) or kidney cancer (Caki-1) cells (1×10^7 cells) were inoculated into 5-week-old BALB/c nude mice on the back flank, and the mice were grown up to approximately 150 mm^3 of the tumor volume. Then, three concentrations of ADP-ribose were administered subcutaneously, intravenously, and orally 3 times a week. The tumor size was measured every 6 days using a digital caliper, and the changes in tumor volume were compared for each group.
Pancreatic cancer (AsPC-1) cells (1×10^7) were inoculated into 5-week-old BALB/c nude mice on the back flank, and the mice were divided into four groups: the control group (Control) and groups injected subcutaneously with 2, 20, and 40 mg/kg of ADP-ribose. When the tumors were grown to a volume of approximately 150 mm^3, each concentration of ADP-ribose was subcutaneously injected 3 times a week. The tumor size was measured using a digital caliper, and the results of changes in tumor volume were compared by the group.

[3] = system: Pancreatic cancer (AsPC-1) cells; assay: Cell death by combination treatment with anti-cancer drug (MTT); type: cell-based; details: Homo sapiens, ASPC1, 24 h
Procedure: (§3) 3×10^3 Brain cancer (U-87MG), lung cancer (H1975), pancreatic cancer (Aspc-1), liver cancer (Hep G2), breast cancer (MDA-MB-231), and colon cancer (HCT116) cells were cultured in a 96-well plate for 24 hours under conditions of 37° C. and 5% Ca2, respectively. […] After the treatment was terminated, the cells were cultured for 24 hours under conditions of 37° C. and 5% CO2 again, 10 μl of 3-(4,5-dimethylthiazol-2-yl)-2,5-diphenyltetrazolium bromide reagent was added to each well and reacted for 1 hour. After the reaction was completed, the reagent was removed, 200 μl of dimethyl sulfoxide was added to each well, and the absorbance was measured to compare the degree of cell death.
(§4) Then, 10 μl of 3-(4,5-dimethylthiazol-2-yl)-2,5-diphenyltetrazolium bromide reagent was added to each well and reacted for 1 hour. After the reaction was completed, the reagent was removed, 200 μl of dimethyl sulfoxide was added to each well, and the absorbance was measured to confirm cell viability.

[4] = system: Breast cancer (MDA-MB-231) cells; assay: as above; type: cell-based; details: Homo sapiens, MDA-MB-231, 24 h
Procedure: as §3, §4

[5] = system: Colon cancer (HCT116) cells; assay: as above; type: cell-based; details: Homo sapiens, HCT-116; HCT116, ADP-ribose 1.6 μM/100 μl in combination with 5-FU 10 μM, 24 hours, P<0.001
Procedure: as §3
3×10^3 Colon cancer (HCT116) cells were cultured in a 96-well plate for 24 hours under conditions of 37° C. and 5% CO2, treated with ADP-ribose at a concentration of 1.6 μM/100 μl and 5-fluorouracil (5-FU) at 10 μM, individually or in combination, and cultured for 24 hours under conditions of 37° C. and 5% CO2 again. Then, 10 μl of 3-(4,5-dimethylthiazol-2-yl)-2,5-diphenyltetrazolium bromide reagent was added to each well and reacted for 1 hour. After the reaction was completed, the reagent was removed, 200 μl of dimethyl sulfoxide was added to each well, and the absorbance was measured to confirm cell viability.

H1975 cells = assay: Cell death by combination treatment of ADP-ribose and radiation (MTT); type: cell-based; details: H1975, 2 μM ADP-ribose in combination with 2 Gy radiation, 24 hours, P<0.001; 2 Gy alone about 75%
Procedure: 3×10^3 H1975 cells were cultured in a 96-well plate for 24 hours under conditions of 37° C. and 5% Ca2, treated with 2 μM of ADP-ribose and 2 or 5 Gy dose of radiation individually or in combination, and cultured for 24 hours under conditions of 37° C. and 5% CO2 again. Then, 10 μl of 3-(4,5-dimethylthiazol-2-yl)-2,5-diphenyltetrazolium bromide reagent was added to each well and reacted for 1 hour. After the reaction was completed, the reagent was removed, 200 μl of dimethyl sulfoxide was added to each well, and the absorbance was measured to confirm cell viability.

Hep G2 cells [6] = assay: as above; type: cell-based; details: Hep G2, 4 μM ADP-ribose in combination with 2 Gy radiation, 24 hours, P<0.001; 2 Gy alone about 82.3%
Procedure: 3×10^3 Brain cancer (U-87MG), lung cancer (H1975), pancreatic cancer (Aspc-1), liver cancer (Hep G2), breast cancer (MDA-MB-231), colon cancer (HCT116), and kidney cancer (Caki-1) cells were cultured in a 96-well plate for 24 hours under conditions of 37° C. and 5% CO2, treated with ADP-ribose or 2 or 5 Gy radiation alone or in combination with ADP-ribose and 2 Gy radiation, and cultured for 24 hours under conditions of 37° C. and 5% CO2 again. Then, 10 μl of 3-(4,5-dimethylthiazol-2-yl)-2,5-diphenyltetrazolium bromide reagent was added to each well and reacted for 1 hour. After the reaction was completed, the reagent was removed, 200 μl of dimethyl sulfoxide was added to each well, and the absorbance was measured to compare the degree of cell death.
3×10^3 Hep G2 cells were cultured in a 96-well plate for 24 hours under conditions of 37° C. and 5% CO2, treated with 4 μM of ADP-ribose and 2 or 5 Gy dose of radiation individually or in combination, and cultured for 24 hours under conditions of 37° C. and 5% CO2 again. Then, 10 μl of 3-(4,5-dimethylthiazol-2-yl)-2,5-diphenyltetrazolium bromide reagent was added to each well and reacted for 1 hour. After the reaction was completed, the reagent was removed, 200 μl of dimethyl sulfoxide was added to each well, and the absorbance was measured to confirm cell viability.

[7] = system: Brain cancer (U-87MG) cells; assay: Xenograft model, combination with radiation, tumor volume; type: in vivo, BALB/c nude mice; details: U-87MG xenograft
Procedure: Brain cancer (U-87MG), pancreatic cancer (AsPC-1), breast cancer (MDA-MB-231), or kidney cancer (Caki-1) cells (1×10^7 cells) were inoculated into 5-week-old BALB/c nude mice on the back flank, respectively. Then, when tumors were grown to a volume of approximately 150 mm^3, the mice were divided into three groups: the control group (Control), 2 Gy dose of radiation alone, and a combination administration of 2 Gy dose of radiation+10 mg/kg of ADP-ribose (subcutaneous administration, 3 times a week). The irradiation was performed with an X-Rad 320 irradiator (Precision X-ray, North Branford, CT, USA), wherein the mice were placed by maintaining an appropriate distance from the radiation source for irradiation with a predetermined radiation dose. A lead shield was used to protect the body parts or organs from exposure to radiation, other than the cancerous part of the mouse. The irradiation was performed with a total of 2 Gy of radiation fractionated into two doses of 1 Gy each (for 2 days) at a dose rate of 300 kVp and 150 cGy/min using an X-ray beam filter composed of 12.5 mA and 2.0 mm Al. The tumor size was measured every 6 days using a digital caliper, and the results of changes in tumor volume were compared by the group.
Brain cancer (U-87MG) cells (1×10^7) were inoculated into 5-week-old BALB/c nude mice on the back flank, and the mice were divided into three groups: the control group, 2 Gy dose of radiation alone, and combination administration of 2 Gy dose radiation+10 mg/kg of ADP-ribose. When the tumors were grown to a volume of approximately 150 mm^3, 2 Gy dose of radiation was irradiated twice at 1 Gy each, and 10 mg/kg of ADP-ribose was injected subcutaneously 3 times a week. The tumor size was measured using a digital caliper, and the results of changes in tumor volume were compared by the group.

[8] = system: human colon fibroblast (CCD-18Co); assay: Toxicity in normal cells (MTT assay); type: cell-based; details: ADP-ribose 25, 50, 100 ul, 24, 48 and 72 hours
Procedure: (§1) As normal cells, human colon fibroblast (CCD-18Co) and human dermal papilla cell (HDPC) cells were used. […] Then, the cells were divided into a total of 4 groups: ADP-ribose untreated group (Untreated), and treated groups (treated with increased concentrations of 25, 50, 100 ul). Cell viability was compared by MTT assay after 24, 48, and 72 hours of drug treatment.

[9] = system: human dermal papilla cell (HDPC); assay: Toxicity in normal cells (MTT assay); type: cell-based; details: ADP-ribose 25, 50, 100 ul, 24, 48 and 72 hours
Procedure: as §1

[10] = system: Liver cancer (Hep G2) cells; assay: Cell death by combination treatment with anti-cancer drug (MTT); details: Homo sapiens, HepG2, 24 h, read-out: viability of cancer cells
Procedure: 3×10^3 Liver cancer (Hep G2) cells were cultured in a 96-well plate for 24 hours under conditions of 37° C. and 5% CO2, treated with ADP-ribose at a concentration of 1.6 μM and sorafenib at 1 μM, individually or in combination, and cultured for 24 hours under conditions of 37° C. and 5% CO2 again. Then, 10 μl of 3-(4,5-dimethylthiazol-2-yl)-2,5-diphenyltetrazolium bromide reagent was added to each well and reacted for 1 hour. After the reaction was completed, the reagent was removed, 200 μl of dimethyl sulfoxide was added to each well, and the absorbance was measured to confirm cell viability.

[11] = ADP-ribose 10 mg/kg s.c. + 2 Gy radiation, P<0.001

Q: `Nc1ncnc2c1ncn2[C@@H]1O[C@H](COP(=O)(O)OP(=O)(O)OC[C@H]2O[C@@H](O)C(O)C2O)C(O)C1O` (stereo partly drawn) [ADP-ribose, adenosine diphosphate ribose] was tested. Which IC50 (U-87MG cells; Homo sapiens, U-87 MG, 24 h, read-out: half-lethal dose (concentration at which about half of the cells were killed)) did it give?
A: ~8 µM

Q: What about the “maximum lethal dose (concentration at which almost all cells were killed)” value (from here on “maximum lethal dose”) (U-87MG cells; U-87MG, 24 hours, MTT) of the same compound?
A: 32 µM

Q: What about the “cancer cell growth under a microscope” value (U-87MG cells; U-87MG, ADP-ribose treated vs control, FIG. 2A) of the same compound?
A: inhibited from growing and killed

Q: What about the “maximum lethal dose” value (Hep G2 cells [1]; Hep G2, 24 hours, MTT) of the same compound?
A: 32 µM

Q: And the “cancer cell growth under a microscope” value (Hep G2 cells [1]; Hep G2, ADP-ribose treated vs control, FIG. 5A)?
A: inhibited from growing and killed

Q: What about the IC50 (Hep G2 cells [1]; Homo sapiens, HepG2, 24 h, read-out: half-lethal dose (concentration at which about half of the cells were killed)) of the same compound?
A: ~4 µM

Q: And the IC50 (MDA-MB-231 cells; Homo sapiens, MDA-MB-231, 24 h, read-out: half-lethal dose (concentration at which about half of the cells were killed))?
A: ~16 µM

Q: What about the “maximum lethal dose” value (MDA-MB-231 cells; MDA-MB-231, 24 hours, MTT) of the same compound?
A: 32 µM

Q: And the “cancer cell growth under a microscope” value (MDA-MB-231 cells; MDA-MB-231, ADP-ribose treated vs control, FIG. 6A)?
A: inhibited from growing and killed

Q: What about the “maximum lethal dose” value (HCT116 cells; HCT116, 24 hours, MTT) of the same compound?
A: 32 µM

Q: What about the “cancer cell growth under a microscope” value (HCT116 cells; HCT116, ADP-ribose treated vs control, FIG. 7A) of the same compound?
A: inhibited from growing and killed

Q: What about the IC50 (HCT116 cells; Homo sapiens, HCT-116, 24 h, read-out: half-lethal dose (concentration at which about half of the cells were killed)) of the same compound?
A: ~8 µM

Q: And the “cell death compared to the control group” value (SNU-1 cells)?
A: killed significantly

Q: What about the final tumor volume ([2]; 2 mg/kg subcutaneous) of the same compound?
A: 1015.8 mm^3

Q: And the final tumor volume ([2]; 20 mg/kg subcutaneous)?
A: 496.6 mm^3

Q: What about the final tumor volume ([2]; 40 mg/kg subcutaneous) of the same compound?
A: 336.2 mm^3

Q: What about the viability at 1.6 µM [3] of the same compound?
A: ~1%

Q: And the viability at 3.2 µM [4]?
A: ~20%

Q: What about the viability at 1.6 µM [5] of the same compound?
A: ~12%

Q: And the “survival rate of cancer cells” value (H1975 cells)?
A: about 8%

Q: And the “survival rate of cancer cells” value (Hep G2 cells [6])?
A: about 7.3%

Q: What about the “reduction of tumor volume compared to the control group” value [7, 11] of the same compound?
A: about 71.5%

Q: What about the “reduction of tumor volume compared to the group treated with 2 Gy dose of radiation alone” value [7, 11] of the same compound?
A: about 50.7%

Q: What about the final tumor volume ([7]; ADP-ribose 10 mg/kg subcutaneous 3 times a week + 2 Gy radiation, control about 2545.2, 2 Gy alone about 1472.1) of the same compound?
A: about 725.2 mm^3

Q: And the “toxicity to normal cells (cell viability, MTT assay)” value [8]?
A: no toxicity was observed

Q: What about the “toxicity to normal cells (cell viability, MTT assay)” value [9] of the same compound?
A: no toxicity was observed

Q: What about the viability at 1.6 µM [10] of the same compound?
A: ~0.9%
